This note sets out measurements from patent publication US20070037862A1, “Thiazolidinones, their production and use as pharmaceutical agents” (priority 2003, published 2007).

Test [1] has as its target T1, Recombinant human Plk-1 (6×His) (Homo sapiens, UniProt P53350).
T1 construct: 6xHis; made in house; host or cells: baculovirus-infected Hi5 insect cells
Description: PLK enzyme assay. It is filed as biochemical. The method, then:
Recombinant human Plk-1 (6×His) was purified from baculovirus-infected insect cells (Hi5).
10 ng of (produced in a recombinant manner and purified) PLK enzyme is incubated for 90 minutes at room temperature with biotinylated casein and 33P-γ-ATP as a substrate in a volume of 15 μl in 384-well Greiner small-volume microtiter plates (final concentrations in the buffer: 660 ng/ml of PLK; 0.7 μmol of casein, 0.5 μmol of ATP incl. 400 nCi/ml of 33P-γ-ATP; 10 mmol of MgCl2, 1 mmol of MnCl2; 0.01% NP40; 1 mmol of DTT, protease inhibitors; 0.1 mmol of Na2VO3 in 50 mmol of HEPES, pH 7.5). To complete the reaction, 5 μl of stop solution (500 μmol of ATP; 500 mmol of EDTA; 1% Triton X100; 100 mg/ml of streptavidin-coated SPA beads in PBS) is added. After the microtiter plate is sealed by film, the beads are sedimented by centrifuging (10 minutes, 1500 rpm). The incorporation of 33P-γ-ATP in casein is intended as a measurement of enzyme activity by β-counting.
Test substances are used in various concentrations (0 μmol, as well as in the range of 0.01-30 ∥mol). The final concentration of the solvent dimethyl sulfoxide is 1.5% in all batches.

For test [2], the system named is human MaTu breast tumor cells. Briefly: Proliferation assay (crystal violet). It is filed as cell-based. Particulars: 96 h, 4 days, read-out: Inhibition of Tumor Cell Proliferation (MaTu) IC50. The procedure:
Cultivated human MaTu breast tumor cells were flattened out at a density of 5000 cells/measuring point in a 96-well multititer plate in 200 μl of the corresponding growth medium. After 24 hours, the cells of one plate (zero-point plate) were colored with crystal violet (see below), while the medium of the other plates was replaced by fresh culture medium (200 μl), to which the test substances were added in various concentrations (0 μm, as well as in the range of 0.01-30 μm; the final concentration of the solvent dimethyl sulfoxide was 0.5%). The cells were incubated for 4 days in the presence of test substances. The cell proliferation was determined by coloring the cells with crystal violet: the cells were fixed by adding 20 μl/measuring point of an 11% glutaric aldehyde solution for 15 minutes at room temperature. After three washing cycles of the fixed cells with water, the plates were dried at room temperature. The cells were colored by adding 100 μl/measuring point of a 0.1% crystal violet solution (pH was set at 3 by adding acetic acid). After three washing cycles of the colored cells with water, the plates were dried at room temperature. The dye was dissolved by adding 100 μl/measuring point of a 10% acetic acid solution. The extinction was determined by photometry at a wavelength of 595 nm. The change of cell growth, in percent, was calculated by standardization of the measured values to the extinction values of the zero-point plate (=0%) and the extinction of the untreated (0 μm) cells (=100%).

Setting [3] is: Table 2, Amides, read-out: Inhibition of Plk-1 IC50.

SMILES strings stand for the structures. Read-outs that look alike come from different tables or passages of the source.

T1 sequence (P53350 whole entry): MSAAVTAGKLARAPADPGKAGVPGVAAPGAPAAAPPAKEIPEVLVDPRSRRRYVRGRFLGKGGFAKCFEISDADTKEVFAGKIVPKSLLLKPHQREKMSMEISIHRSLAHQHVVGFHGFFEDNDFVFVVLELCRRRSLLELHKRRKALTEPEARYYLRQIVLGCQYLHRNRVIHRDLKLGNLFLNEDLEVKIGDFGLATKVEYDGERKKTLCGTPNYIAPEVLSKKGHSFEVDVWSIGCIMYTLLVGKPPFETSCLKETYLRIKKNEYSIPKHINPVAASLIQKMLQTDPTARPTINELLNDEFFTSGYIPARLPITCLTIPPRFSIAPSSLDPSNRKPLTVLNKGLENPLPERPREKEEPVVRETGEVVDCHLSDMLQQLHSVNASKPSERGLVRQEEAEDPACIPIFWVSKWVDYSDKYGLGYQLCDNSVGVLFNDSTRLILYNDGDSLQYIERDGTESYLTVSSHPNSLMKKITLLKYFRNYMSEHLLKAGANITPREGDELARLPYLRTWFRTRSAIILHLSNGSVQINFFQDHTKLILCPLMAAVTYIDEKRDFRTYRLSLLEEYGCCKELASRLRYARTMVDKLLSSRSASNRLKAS

For the molecule `CCn1c(=O)c(=CNc2ccccc2)s/c1=C(/C#N)C(=O)NCc1ccco1` [Example 223], the IC50 in test [1] (Table 1, read-out: PLK IC50) was found to be 3100 nM.
Take `CCCCN(C)C(=O)/C(C#N)=c1\sc(=CNc2ccccc2)c(=O)n1CC` [Example 234]: in test [1] (Table 1, read-out: PLK IC50), the IC50 is 950 nM.
As to `CCn1c(=O)c(=CNc2ccccc2)s/c1=C(/C#N)C(=O)N1CCCC1` [Example 210], the IC50 in test [2] (Table 2, Amides) came out at 4500 nM.
Turning to `CCn1c(=O)c(=CNc2cccc(NC(=O)C(C)(C)C)c2)s/c1=C(/C#N)C(=O)NC1(CO)CCCC1` [Example 192], the IC50 in test [2] (Table 2, Amides) was determined as 9700 nM.
As for `C=CCOC(=O)C(C#N)=c1sc(=CNc2ccc(C(C)=O)cc2)c(=O)n1CC` (mixture of isomers) [Example 133], the IC50 in test [2] (Table 3, Esters) stood at 1400 nM.
For `CCOC(=O)C(C#N)=c1sc(=CNc2ccc(C(C)=O)cc2)c(=O)n1CC` (mixture of isomers) [Example 132], the IC50 in test [2] (Table 3, Esters) was 3100 nM.
As for `CCN(CC)CCNC(=O)c1c[nH]c2ccc(NC=c3s/c(=C(/C#N)C(=O)NCC(F)(F)F)n(CC)c3=O)cc12` [Example 330], the IC50 in test [2] (Table 2, Amides) was found to be 1200 nM.
On to `CCn1c(=O)c(=CNc2ccc(OCCN(C)C)cc2)s/c1=C(/C#N)C(=O)NCC(F)F` [Example 310], for which the IC50 in test [1] (setting [3]) was found to be 74 nM.
Turning to `C=CCOC(=O)C(C#N)=c1sc(=CNc2ccc(NC(=O)NCCN3CCCC3)cc2)c(=O)n1CC` (mixture of isomers) [Example 47], the IC50 in test [1] (Table 3, Esters, read-out: Inhibition of Plk-1 IC50) is 23 nM; in test [2] (Table 3, Esters), 1100 nM.
Regarding `CCn1c(=O)c(=CNc2ccc(CCN3CCCC3)cc2)s/c1=C(/C#N)C(=O)NCC(F)(F)F` [Example 527], the IC50 in test [2] (Table 2, Amides) came to 2800 nM.
`CCOC(=O)C(C#N)=c1sc(=CNc2ccccc2F)c(=O)n1CC` (mixture of isomers) [Example 36]: the IC50 in test [1] (Table 1, read-out: PLK IC50) is 160 nM.
Take `CCOC(=O)C(C#N)=c1sc(=CNc2ccc(NC(=O)NCCN3CCCC3)cc2)c(=O)n1CC` [Example 74]: the IC50 in test [2] (Table 3, Esters) turned out to be 3300 nM.
Turning to `C#CCNC(=O)/C(C#N)=c1\sc(=CNc2ccc(OCCN(C)C)cc2)c(=O)n1CC` [Example 307], in test [1] (setting [3]), the IC50 came out at 71 nM.
Consider `CCNC(=O)/C(C#N)=c1\sc(=CNc2cccc(C(=O)NCCCN3CCCC3)c2)c(=O)n1CC` [Example 169], for which the IC50 in test [2] (Table 2, Amides) was 3550 nM.
For the molecule `CCOC(=O)C(C#N)=c1sc(=CNc2ccc(NC(=O)COC)cc2)c(=O)n1CC` [Example 19], the IC50 in test [1] (Table 1, read-out: PLK IC50) came out at 500 nM.
On to `CCOC(=O)C(C#N)=c1sc(=CNc2ccc(OC)c(NC(=S)N3CCOCC3)c2)c(=O)n1CC` (mixture of isomers) [Example 56], for which the IC50 in test [1] (Table 1, read-out: PLK IC50) was determined as 810 nM.
